# Assay results taken from patent US20030031715A1, “Pharmaceutical applications of hydrotropic agents, polymers thereof, and hydrogels thereof” (priority 2000, published 2003).
# Where two headings read alike, the source gives them in different places.
# What was measured:
# [1] = at 37° C.; cited from earlier work
# [2] = Paclitaxel aqueous solubility in the presence of hydrotropic agents, polymers and hydrogels (HPLC); settings: for hydrotropic effect for paclitaxel, in words: agent concentration as printed in parentheses in the text
# Description: The mobile phase consists of acetonitrile-water (45:55 v/v) with a flow rate of 1.0 ml/min.
# To the filtered solution is added ethylene glycol dimethacrylate, a crosslinker at a concentration of 6 mol % to the monomer.
# [3] = log (CO/CW), octanol and water; cited from earlier work
# physchem = settings: water
# [4] = Water solubility (maximum solubility) of hydrotropic agents; settings: for solubility: water
compound,measurement,setting,value
CCCCNC(=O)NS(=O)(=O)c1ccc(C)cc1 [Tolbutamide],Water Solubility (μM),[1],202.6 µM
same,Water Solubility (μg/ml),[1],54.8 µg/mL
C=CC(=O)NC(C)C [N-isopropylacrylamide],"hydrotropic effect for paclitaxel, in words",[2],very small hydrotropic effects
CC(=O)S[C@@H]1CC2=CC(=O)CC[C@]2(C)[C@H]2CC[C@@]3(C)[C@@H](CC[C@@]34CCC(=O)O4)[C@H]12 [Spironolactone],Water Solubility (μM),[1],72.0 µM
same,Water Solubility (μg/ml),[1],30.0 µg/mL
same,Partition Coefficient,[3],2.78
"NC(=O)c1cccc(C(N)=O)n1 [2,6-pyridinedicarboxamide]",PTX Solubility,[2],0.000 mg/mL
same,solubility,physchem,2.5 mM
Pluronic F127,PTX Solubility,[2],0.066 mg/mL
C[C@]12CC[C@@H]3c4ccc(O)cc4CC[C@H]3[C@@H]1CCC2=O [Estrone],Partition Coefficient,[3],3.69
Polyvinylpyrrolidone K-25,PTX Solubility,[2],0.003 mg/mL
"CCN(CC)C(=O)c1ccc(=O)[nH]c1 [6-Hydroxy-N,N-diethylnicotinamide]",solubility,[4],2000 mM
CC(=O)OCC(COC(C)=O)OC(C)=O [glyceryl triacetate],solubility,physchem,200 mM
CCOc1ccc(NC(C)=O)cc1 [Phenacetin],Partition Coefficient,[3],1.55
"CCN(CC)C(=O)c1cccnc1 [N,N-diethylnicotinamide]","hydrotropic property relative to N,N-dimethylnicotinamide",[2],> 20 times
O=C1NC(=O)C(c2ccccc2)(c2ccccc2)N1 [Phenytoin],Water Solubility (μM),[1],79.3 µM
same,Water Solubility (μg/ml),[1],20.0 µg/mL
same,Partition Coefficient,[3],2.47
Polyvinylpyrrolidone K- 17,PTX Solubility,[2],0.000 mg/mL
Cc1ccc(S(=O)(=O)[O-])cc1.[Na+] [Sodium p-toluenesulfonate],solubility,[4],2500 mM
CC/C(=C(/CC)c1ccc(O)cc1)c1ccc(O)cc1 [Diethylstilbestrol],Water Solubility (μM),[1],7.5 µM
same,Water Solubility (μg/ml),[1],2.0 µg/mL
same,Partition Coefficient,[3],4.50
C#C[C@]1(O)CC[C@H]2[C@@H]3CCC4=CC(=O)CC[C@@H]4[C@H]3CC[C@@]21C [Norethindrone],Partition Coefficient,[3],3.15
Poly(Sodium 4-acrylamidosalicylate),PTX Solubility,[2],0.028 mg/mL
CNC(C)=O [N-methylacetamide],"hydrotropic effect for paclitaxel, in words",[2],very small hydrotropic effects
same,PTX Solubility,[2]; hydrotropic agent […],0.012 mg/mL
COC(=O)C1=C(C)NC(C)=C(C(=O)OCCN(C)Cc2ccccc2)C1c1cccc([N+](=O)[O-])c1 (centres unmarked) [Nicardipine],Water Solubility (μM),[1],7.1 µM
same,Water Solubility (μg/ml),[1],3.4 µg/mL
same,Partition Coefficient,[3],3.62
C[C@@H]1C[C@H]2[C@@H]3CCC4=CC(=O)C=C[C@]4(C)[C@@]3(F)[C@@H](O)C[C@]2(C)[C@@]1(O)C(=O)CO [Dexamethasone],Water Solubility (μM),[1],25.5 µM
same,Water Solubility (μg/ml),[1],10.0 µg/mL
same,Partition Coefficient,[3],1.95
C=C(C)C(=O)OCCOP(=O)([O-])OCC[N+](C)(C)C [2-methacryloyloxyethyl phosphorylcholine],PTX Solubility,[2],3.199 mg/mL
CN1CCN(CCCN2c3ccccc3Sc3ccc(C(F)(F)F)cc32)CC1 [Trifluoperazine],Partition Coefficient,[3],4.15
COC(=O)C1=C(C)NC(C)=C(C(=O)OC)C1c1ccccc1[N+](=O)[O-] [Nifedifine],Water Solubility (μM),[1],28.9 µM
same,Water Solubility (μg/ml),[1],10.0 µg/mL
same,Partition Coefficient,[3],2.20
CN(C)CCCN1c2ccccc2Sc2ccc(Cl)cc21 [Chlorpromazine],Water Solubility (μM),[1],94.1 µM
same,Water Solubility (μg/ml),[1],30.0 µg/mL
same,Partition Coefficient,[3],3.17
O=c1[nH]c2ccccc2n1C1CCN(CCCC(c2ccc(F)cc2)c2ccc(F)cc2)CC1 [Pimozide],Water Solubility (μM),[1],2.2 µM
same,Water Solubility (μg/ml),[1],1.0 µg/mL
same,Partition Coefficient,[3],4.50
O=C1CCC(N2C(=O)c3ccccc3C2=O)C(=O)N1 (centres unmarked) [Thalidomide],Water Solubility (μM),[1],77.5 µM
same,Water Solubility (μg/ml),[1],20.0 µg/mL
same,Partition Coefficient,[3],0.64
CC(C)(C)c1ccc(C(O)CCCN2CCC(C(O)(c3ccccc3)c3ccccc3)CC2)cc1 (centres unmarked) [Terfenadine],Water Solubility (μM),[1],152.8 µM
same,Water Solubility (μg/ml),[1],72.1 µg/mL
same,Partition Coefficient,[3],4.05
"Poly(6-allyloxy-N,N-diethylnicotinamide)",PTX Solubility,[2],0.149 mg/mL
Cc1ccc(S(=O)(=O)[O-])c(C)c1.[Na+] [Sodium xylenesulfonate],solubility,[4],2500 mM
COC(=O)Nc1nc2ccc(C(=O)c3ccccc3)cc2[nH]1 [Mebendazole],Partition Coefficient,[3],2.83
Polyvinylpyrrolidone K-90,PTX Solubility,[2],0.002 mg/mL
Poly(N-allylnicotinamide),PTX Solubility,[2],0.253 mg/mL
COC(=O)[C@H]1[C@H]2C[C@@H]3c4[nH]c5cc(OC)ccc5c4CCN3C[C@H]2C[C@@H](OC(=O)c2cc(OC)c(OC)c(OC)c2)[C@@H]1OC [Reserpine],Water Solubility (μM),[1],1.6 µM
same,Water Solubility (μg/ml),[1],1.0 µg/mL
same,Partition Coefficient,[3],3.73
CO[C@H]1C[C@@H]2CC[C@@H](C)[C@@](O)(O2)C(=O)C(=O)N2CCCC[C@H]2C(=O)O[C@H]([C@H](C)C[C@@H]2CC[C@@H](O)[C@H](OC)C2)CC(=O)[C@H](C)/C=C(\C)[C@@H](O)[C@@H](OC)C(=O)[C@H](C)C[C@H](C)/C=C/C=C/C=C/1C [Rapamycin],Water Solubility (μM),[1],3.3 µM
same,Water Solubility (μg/ml),[1],3.0 µg/mL
C[C@]12CCC(=O)C=C1CC[C@@H]1[C@@H]2[C@@H](O)C[C@@]2(C)[C@H]1CC[C@]2(O)C(=O)CO [Hydrocortisone],Partition Coefficient,[3],1.52
O=C(O)Cc1ccccc1Nc1c(Cl)cccc1Cl [Diclofenac],Water Solubility (μM),[1],10.1 µM
same,Water Solubility (μg/ml),[1],3.0 µg/mL
same,Partition Coefficient,[3],1.12
Poly(sodium 6-allyloxynicotinic acid),PTX Solubility,[2],0.003 mg/mL
NC(N)=O [urea],PTX Solubility,[2],0.001 mg/mL
O=C1NS(=O)(=O)c2ccccc21 [o-benzoic acid sulfimide],maximum solubility (water solubility) of the hydrotropic agent,[4]; in water,10 mM
C(=C\c1ccccc1)/CN1CCN(C(c2ccccc2)c2ccccc2)CC1 [Cinnarizine],Water Solubility (μM),[1],<1.0 µM
same,Water Solubility (μg/ml),[1],<0.4 µg/mL
Nc1ccc(C(=O)O)c(O)c1 [4-aminosalicylic acid],solubility,physchem,5 mM
"CCN(CC)C(=O)c1cccnc1O [2-hydroxy-N,N-diethylnicotinamide]",PTX Solubility,[2],0.000 mg/mL
same,solubility,physchem,200 mM
Poly(2-methacryloyloxyethyl phosphorylcholine-co-N-isopropylacrylamide),PTX Solubility,[2],0.042 mg/mL
Pluronic P85,PTX Solubility,[2],0.118 mg/mL
Polyvinylpyrrolidone K-30,PTX Solubility,[2],0.001 mg/mL
Fc1ccc(C(c2ccc(F)cc2)N2CCN(C/C=C/c3ccccc3)CC2)cc1 [Flunarizine],Water Solubility (μM),[1],1.0 µM
same,Water Solubility (μg/ml),[1],0.4 µg/mL
same,Partition Coefficient,[3],4.70
Nc1ncnc2c1ncn2[C@@H]1O[C@H](CO)[C@@H](O)[C@H]1O [adenosine],solubility,physchem,5 mM
COc1ccc2c(c1)c(CC(=O)O)c(C)n2C(=O)c1ccc(Cl)cc1 [Indomethacin],Water Solubility (μM),[1],55.9 µM
same,Water Solubility (μg/ml),[1],20.0 µg/mL
same,Partition Coefficient,[3],4.27
"NC(=O)c1ccncc1C(N)=O [3,4-pyridinedicarboxamide]",PTX Solubility,[2],0.000 mg/mL
same,solubility,physchem,25 mM
"CC(C)N(C(=O)c1cccnc1)C(C)C [diisopropylnicotinamide, N,N-diisopropylnicotinamide]",solubility,physchem,50 mM
Poly(Sodium 5-acrylamidosalicylate),PTX Solubility,[2],0.000 mg/mL
CCC(C)n1ncn(-c2ccc(N3CCN(c4ccc(OCC5COC(Cn6cncn6)(c6ccc(Cl)cc6Cl)O5)cc4)CC3)cc2)c1=O (centres unmarked) [Itraconazole],Water Solubility (μM),[1],2.8 µM
same,Water Solubility (μg/ml),[1],2.0 µg/mL
same,Partition Coefficient,[3],5.66
C[C@H]1O[C@@H](O[C@H]2[C@@H](O)C[C@H](O[C@H]3[C@@H](O)C[C@H](O[C@H]4CC[C@@]5(C)[C@H](CC[C@@H]6[C@@H]5C[C@@H](O)[C@]5(C)[C@@H](C7=CC(=O)OC7)CC[C@]65O)C4)O[C@@H]3C)O[C@@H]2C)C[C@H](O)[C@@H]1O [Digoxin],Water Solubility (μM),[1],38.4 µM
same,Water Solubility (μg/ml),[1],30.0 µg/mL
same,Partition Coefficient,[3],1.26
